Reference: patent US20130096160A1, “ARYLTHIAZOLYL PIPERIDINES AND RELATED COMPOUNDS AS MODULATORS OF SURVIVAL MOTOR NEURON (SMN) PROTEIN PRODUCTION” (Secretary, Department of Health and Human Services, priority 2010, published 2013)

What was measured:
human SMN protein = assay: Western blot of SMN protein in SMA patient fibroblasts (3813); assay type: cell-based; details: SMA patient cells (3813), 0.1-10 μM, FIG. 2
Experimental: Type I spinal muscular atrophy (SMA)-affected human primary fibroblasts (#GM03813) and carrier parents (#GM03814, parent and #GM03815, […]) are obtained live with low passage number from Coriell Cell Repositories. […] For detection of SMN protein in patient fibroblasts, 8,000 cells per cm^2 are plated 24 hours prior to drug addition. Fresh media and compound are added every 24 hours. After 72 hours, cells are harvested, washed with cold PBS, and lysed. Samples are subjected to polyacrylamide gel electrophoresis (PAGE). It is determined that 10 μg total protein per lane is within the linear range for immunoblot detection of SMN and alpha-tubulin. Western blots of the gel are probed for SMN with the 4B7 mouse monoclonal antibody (from the lab of Christian Lorson). A goat anti-mouse antibody (Santa Cruz Biotechnology/#sc-2005) conjugated to horseradish peroxidase (HRP) is used as the secondary antibody. Quantification of protein is performed by detecting chemiluminescence with a Fujifilm LAS-4000 Multifunctional Imaging System. […] We incubated a fibroblast cell line from a type I SMA patient (3813 cell line) with different doses of analogues and assessed the SMN protein level by quantitative western blotting (FIG. 4). We observed that analogue 8 m at concentration of 37 nanomolar increased the SMN protein level by 2-3 fold. […] This could be due with the intrinsic mechanism of action or to other causes, such us concentration dependent compound solubility.

SMN2-luciferase reporter = SMN2-luciferase reporter qHTS assay; assay type: cell-based, human; details: SMN2-luc reporter, FIG. 1
Method in brief: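 SMN2 exon-7 splicing firefly-luciferase reporter cell line, ~2000 cells/well in phenol-red-free DMEM with 10% serum, allowed to adhere 10–12 h, then exposed to compounds for 2 days at 37 C, 5% CO2. Seven-point five-fold dilution series (e.g. 50 μM to 3.2 nM), OneGlo luminescence read, curves fitted to Hill equation.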

expression of SMN2 / levels of the full length SMN2 gene (in words) (SMN2-luciferase reporter): increases the expression of SMN2
Structure (SMILES): NC(=O)C1CCN(c2nc(-c3ccc(Br)cc3)cs2)CC1 [MLS000698854]
SMN protein by Western blot (in words) (human SMN protein): concentration-dependent increase in SMN protein
